{
  "source": "paper PMC5079767",
  "about": "(Bioorganic & medicinal chemistry letters, 2016)",
  "key": {"[1]": {"system": "Escherichia coli, Bacillus subtilis, Mycobacterium smegmatis", "conditions": "cited from earlier work"}, "[2]": {"molecular_target": "cysteine adenylation domain of HMWP2 (residues 1–1491) (Yersinia pestis, UniProt A0A2S9PH42)", "sequence (A0A2S9PH42 1-1491 limits assumed)": "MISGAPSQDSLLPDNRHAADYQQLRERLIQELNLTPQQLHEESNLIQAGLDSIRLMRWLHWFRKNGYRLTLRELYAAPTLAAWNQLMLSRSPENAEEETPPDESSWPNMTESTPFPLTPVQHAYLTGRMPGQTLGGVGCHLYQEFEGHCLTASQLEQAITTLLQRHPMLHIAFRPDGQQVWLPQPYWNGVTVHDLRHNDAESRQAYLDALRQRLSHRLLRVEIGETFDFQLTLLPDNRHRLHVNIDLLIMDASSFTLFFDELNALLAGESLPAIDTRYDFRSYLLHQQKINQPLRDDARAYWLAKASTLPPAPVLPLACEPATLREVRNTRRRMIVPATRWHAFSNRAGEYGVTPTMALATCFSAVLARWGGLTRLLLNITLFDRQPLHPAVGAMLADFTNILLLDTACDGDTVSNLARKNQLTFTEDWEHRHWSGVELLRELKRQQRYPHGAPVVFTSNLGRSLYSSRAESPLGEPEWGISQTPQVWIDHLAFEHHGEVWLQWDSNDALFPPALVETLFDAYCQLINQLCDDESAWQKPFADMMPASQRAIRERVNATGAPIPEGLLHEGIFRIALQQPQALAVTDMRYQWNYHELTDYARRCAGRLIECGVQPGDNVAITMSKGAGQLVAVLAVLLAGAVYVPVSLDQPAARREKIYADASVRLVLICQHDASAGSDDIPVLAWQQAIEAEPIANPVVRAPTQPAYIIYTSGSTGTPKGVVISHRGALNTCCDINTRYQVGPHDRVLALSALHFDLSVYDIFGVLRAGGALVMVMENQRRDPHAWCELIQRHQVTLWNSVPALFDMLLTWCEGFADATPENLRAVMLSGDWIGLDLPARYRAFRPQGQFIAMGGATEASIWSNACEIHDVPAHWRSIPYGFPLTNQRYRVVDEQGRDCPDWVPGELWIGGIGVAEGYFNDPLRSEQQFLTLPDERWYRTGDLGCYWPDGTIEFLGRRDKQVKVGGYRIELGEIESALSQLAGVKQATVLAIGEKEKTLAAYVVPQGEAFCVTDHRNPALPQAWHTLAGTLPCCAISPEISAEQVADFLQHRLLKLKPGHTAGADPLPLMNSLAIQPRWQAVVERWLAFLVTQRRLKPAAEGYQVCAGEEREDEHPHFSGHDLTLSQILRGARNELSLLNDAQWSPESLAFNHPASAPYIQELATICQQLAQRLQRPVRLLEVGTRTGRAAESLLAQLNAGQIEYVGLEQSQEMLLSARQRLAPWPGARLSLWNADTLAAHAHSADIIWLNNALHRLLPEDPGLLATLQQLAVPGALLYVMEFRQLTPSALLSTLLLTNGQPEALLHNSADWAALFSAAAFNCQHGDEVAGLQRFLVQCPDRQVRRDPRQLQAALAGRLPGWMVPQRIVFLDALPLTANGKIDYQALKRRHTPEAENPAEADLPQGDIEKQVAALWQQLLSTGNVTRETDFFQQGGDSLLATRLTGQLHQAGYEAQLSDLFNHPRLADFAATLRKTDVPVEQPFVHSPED", "format": "biochemical"}, "[3]": {"system": "Y. pestis", "conditions": "cited from earlier work"}, "[4]": {"system": "aminoacyl-tRNA synthetases", "format": "biochemical, rabbit"}, "[5]": {"system": "Y. pestis", "format": "cell-based, Yersinia pestis"}},
  "note": "Like-named read-outs stand apart in the source and are kept apart here.",
  "data": [
    {"compound": "C[C@H](O)C(=O)NS(=O)(=O)OC[C@H]1O[C@@H](n2cnc3c(N)ncnc32)[C@H](O)[C@@H]1O", "note": "[4b, lactyl-AMS]", "values": [
      {"measurement": "intracellular concentration", "setting": "[1]; all three strains (E. coli, B. subtilis, M. smegmatis), 100 µM extracellular concentration applied", "value": "28 to 53", "unit": "µM"}
    ]},
    {"compound": "Nc1ncnc2c1ncn2[C@@H]1O[C@H](COS(=O)(=O)NC(=O)[C@@H](O)CS)[C@@H](O)[C@H]1O", "note": "[4d, α-hydroxy-cysteyl-AMS]", "values": [
      {"measurement": "IC50 relative to alanyl-AMS (4a)", "setting": "[2]", "value": "≤ 15", "unit": "fold"},
      {"measurement": "increase in HMWP2 inhibition on inclusion of β-thio group", "setting": "[2]", "value": "≈ 2 orders of magnitude"},
      {"measurement": "increase in inhibitory potency by β-thiol side chain", "setting": "[2]", "value": "30–60 fold"}
    ]},
    {"compound": "C[C@H](N)C(=O)NS(=O)(=O)OC[C@H]1O[C@@H](n2cnc3c(N)ncnc32)[C@H](O)[C@@H]1O", "note": "[4a, alanyl-AMS]", "values": [
      {"measurement": "penetration of bacteria above the limits of detection", "setting": "[1]; E. coli, B. subtilis, M. smegmatis", "value": "did not penetrate"}
    ]},
    {"compound": "Nc1ncnc2c1ncn2[C@@H]1O[C@H](COS(=O)(=O)NC(=O)[C@@H](N)CS)[C@@H](O)[C@H]1O", "note": "[4c, cysteyl-AMS]", "values": [
      {"measurement": "increase in HMWP2 inhibition on inclusion of β-thio group", "setting": "[2]", "value": "≈ 2 orders of magnitude"},
      {"measurement": "increase in inhibitory potency by β-thiol side chain", "setting": "[2]", "value": "30–60 fold"}
    ]},
    {"compound": "salicyl-AMS", "values": [
      {"measurement": "inhibition of yersiniabactin production", "setting": "[3]", "value": "blocks yersiniabactin production"}
    ]},
    {"compound": "Nc1ncnc2c1nc1n2[C@@H]2O[C@H](COS(=O)(=O)NC(=O)[C@@H](N)CCC1)[C@@H](O)[C@H]2O", "note": "[5a, cyclo-alanyl-AMS]", "values": [
      {"measurement": "inhibitory activity in in vitro translation assay", "setting": "[4]", "value": "inactive"},
      {"measurement": "inhibition of yersiniabactin production", "setting": "[5]", "value": "did not inhibit"}
    ]},
    {"compound": "Nc1ncnc2c1nc1n2[C@@H]2O[C@H](COS(=O)(=O)NC(=O)[C@@H](O)CCC1)[C@@H](O)[C@H]2O", "note": "[5b, cyclo-lactyl-AMS]", "values": [
      {"measurement": "inhibitory activity in in vitro translation assay", "setting": "[4]", "value": "inactive"}
    ]}
  ]
}
